Measured values as given in patent publication US9388189B2, “Pyrrolotriazinone derivatives as PI3K inhibitors” (ALMIRALL, S.A., priority 2012, dated 2016).

Target: PI3Kδ (PI3Kd) (Homo sapiens (Human), UniProt O00329)
Experiment: PI3K HTRF enzymatic inhibition assay (cell-free), delta isoform
Conditions: read-out: IC50 PI3Kd HTRF; recombinant PI3K delta, [ATP] 15 μM, [PIP2] 2 μM, 30 min preincubation
Text: Compounds were screened for their ability to inhibit PI3Kα (PI3Ka), PI3Kβ (PI3Kb), PI3Kδ (PI3Kd) and PI3Kγ (PI3Kg) using a cell-free based PI3K HTRF™ assay (Millipore, ref. #33-017).
PI-3 Kinase HTRF kit (ref. #33-037) and the different PI3K recombinant isoforms (ref. #14-602, ref. #14-603, ref. #14-604, ref. #15-558 for Alpha, Beta, Delta and Gamma respectively) were purchased at Millipore (expressed in insect cells). ATP was purchased at Sigma Aldrich (ref. #A7699).
The compounds were pre-incubated with the enzyme for 30 min before starting of the catalytic reaction. [PIP2] was used at its Km. […] Time of assay and [Enzyme] were optimized to work in the linear range. Stop and Detection mixtures were used as specified in the Millipore PI-3 Kinase kit.
Reaction time and enzyme concentration in the assay will depend of each batch.
All experiments were analysed using Activity Base software from IDBS and the four-parameter log equation.

Sequence of PI3Kδ (PI3Kd) (O00329 whole entry, canonical isoform): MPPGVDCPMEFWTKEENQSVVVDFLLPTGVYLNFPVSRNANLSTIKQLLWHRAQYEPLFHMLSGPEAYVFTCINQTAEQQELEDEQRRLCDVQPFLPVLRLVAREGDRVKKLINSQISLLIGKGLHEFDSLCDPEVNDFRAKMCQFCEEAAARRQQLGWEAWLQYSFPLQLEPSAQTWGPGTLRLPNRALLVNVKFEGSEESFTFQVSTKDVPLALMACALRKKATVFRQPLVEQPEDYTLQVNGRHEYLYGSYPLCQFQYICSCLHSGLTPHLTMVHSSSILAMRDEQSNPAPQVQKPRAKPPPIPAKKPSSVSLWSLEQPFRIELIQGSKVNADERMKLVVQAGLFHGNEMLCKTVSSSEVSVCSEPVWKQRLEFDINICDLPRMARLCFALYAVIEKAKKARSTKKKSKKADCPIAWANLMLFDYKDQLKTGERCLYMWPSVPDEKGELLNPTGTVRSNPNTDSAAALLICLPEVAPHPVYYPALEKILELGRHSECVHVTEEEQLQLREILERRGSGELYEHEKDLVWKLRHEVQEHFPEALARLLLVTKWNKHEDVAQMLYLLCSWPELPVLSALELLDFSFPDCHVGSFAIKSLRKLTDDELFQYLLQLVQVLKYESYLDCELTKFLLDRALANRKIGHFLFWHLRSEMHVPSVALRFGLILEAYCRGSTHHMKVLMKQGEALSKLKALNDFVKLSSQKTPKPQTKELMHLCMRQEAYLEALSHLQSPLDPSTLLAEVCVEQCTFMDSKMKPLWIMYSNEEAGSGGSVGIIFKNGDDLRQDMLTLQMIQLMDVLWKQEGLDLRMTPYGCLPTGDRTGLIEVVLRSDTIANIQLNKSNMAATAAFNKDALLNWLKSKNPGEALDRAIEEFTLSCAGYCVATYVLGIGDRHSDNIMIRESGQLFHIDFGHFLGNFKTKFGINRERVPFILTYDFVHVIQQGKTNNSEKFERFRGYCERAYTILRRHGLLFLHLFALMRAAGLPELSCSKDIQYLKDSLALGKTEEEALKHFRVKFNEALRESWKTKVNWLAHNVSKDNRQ
Sequence of PI3Kδ (PI3Kd) (P27986 whole entry partner, canonical isoform): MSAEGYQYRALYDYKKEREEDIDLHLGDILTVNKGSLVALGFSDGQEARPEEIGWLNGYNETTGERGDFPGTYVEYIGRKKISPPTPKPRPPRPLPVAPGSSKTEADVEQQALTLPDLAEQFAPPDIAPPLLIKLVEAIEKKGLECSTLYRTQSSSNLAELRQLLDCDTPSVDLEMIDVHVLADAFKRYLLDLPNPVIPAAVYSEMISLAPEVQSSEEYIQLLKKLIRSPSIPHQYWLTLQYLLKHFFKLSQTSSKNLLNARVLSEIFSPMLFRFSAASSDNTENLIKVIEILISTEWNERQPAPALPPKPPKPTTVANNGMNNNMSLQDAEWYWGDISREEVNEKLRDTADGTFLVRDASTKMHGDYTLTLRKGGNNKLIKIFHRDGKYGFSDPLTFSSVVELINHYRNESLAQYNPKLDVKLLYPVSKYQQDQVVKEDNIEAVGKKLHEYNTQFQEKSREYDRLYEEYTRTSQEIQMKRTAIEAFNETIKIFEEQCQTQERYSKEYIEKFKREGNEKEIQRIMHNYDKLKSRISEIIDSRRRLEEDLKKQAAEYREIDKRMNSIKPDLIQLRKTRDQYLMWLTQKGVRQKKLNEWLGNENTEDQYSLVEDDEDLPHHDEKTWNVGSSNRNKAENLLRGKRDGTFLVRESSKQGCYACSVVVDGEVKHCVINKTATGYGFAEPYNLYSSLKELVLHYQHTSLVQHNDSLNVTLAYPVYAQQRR

Cc1ccn2nc([C@H](C)Nc3ncnc(N)c3-c3cccc(C(=O)Nc4cccc(O)c4)c3)n(-c3ccccc3)c(=O)c12 [Example 168, (S)-3-(4-Amino-6-((1-(5-methyl-4-oxo-3-phenyl-3,4-dihydropyrrolo[2,1-f][1,2,4]triazin-2-yl)ethyl)amino)pyrimidin-5-yl)-N-(3-hydroxyphenyl)benzamide]
IC50: 2 nM

Cc1ccn2nc([C@H](C)Nc3ncnc(N)c3Cc3cccc(O)c3)n(-c3ccccc3)c(=O)c12 [Example 64, (S)-2-(1-((6-Amino-5-(3-hydroxybenzyl)pyrimidin-4-yl)amino)ethyl)-5-methyl-3-phenylpyrrolo[2,1-f][1,2,4]triazin-4(3H)-one]
IC50: 16 nM

N#Cc1c(N)ncnc1N[C@@H](CCSCc1ccccc1)c1nn2cccc2c(=O)n1-c1ccccc1 [Example 19, (S)-4-Amino-6-((3-(benzylthio)-1-(4-oxo-3-phenyl-3,4-dihydropyrrolo[2,1-f][1,2,4]triazin-2-yl)propyl)amino)pyrimidine-5-carbonitrile]
IC50: 95 nM

Cc1ccn2nc([C@H](C)Nc3ncnc4[nH]cc(-c5cccc(S(=O)(=O)N6CCOCC6)c5)c34)n(-c3ccccc3)c(=O)c12 [Example 85, (S)-5-Methyl-2-(1-((5-(3-(morpholinosulfonyl)phenyl)-7H-pyrrolo[2,3-d]pyrimidin-4-yl)amino)ethyl)-3-phenylpyrrolo[2,1-f][1,2,4]triazin-4(3H)-one]
IC50: 0.3 nM

Cc1ccn2nc([C@H](C)Nc3ncnc4[nH]cc(-c5cc(NS(C)(=O)=O)cc(C(=O)N(C)C)c5)c34)n(-c3ccccc3)c(=O)c12 [Example 219, (S)—N,N-dimethyl-3-(4-((1-(5-methyl-4-oxo-3-phenyl-3,4-dihydropyrrolo[2,1-f][1,2,4]triazin-2-yl)ethyl)amino)-7H-pyrrolo[2,3-d]pyrimidin-5-yl)-5-(methylsulfonamido)benzamide]
IC50: 0.3 nM

Cc1ccn2nc([C@H](C)Nc3ncnc4[nH]cc(C(=O)OCc5ccccc5)c34)n(-c3ccccc3)c(=O)c12 [Example 37, (S)-Benzyl 4-((1-(5-methyl-4-oxo-3-phenyl-3,4-dihydropyrrolo[2,1-f][1,2,4]triazin-2-yl)ethyl)amino)-7H-pyrrolo[2,3-d]pyrimidine-5-carboxylate]
IC50: 5 nM
